Measurements taken from patent US20150051283A1, “COMPOSITION AND METHOD FOR INHIBITION OF PKNG FROM MYCOBACTERIUM TUBERCULOSIS” (priority 2013, published 2015).

Tests used:
[1] = molecular target: Xanthine oxidoreductase (XOR) (Homo sapiens, UniProt P47989); settings: reference [15]; cited from earlier work
PknGΔ74/TPR = PknGΔ74/TPR (Mycobacterium tuberculosis, UniProt P9WI73); format: biochemical
rabbit muscle GAPDH = molecular target: T1, rabbit muscle GAPDH (Oryctolagus cuniculus, UniProt P46406); assay: Reversibility of GAPDH inhibition by DTT (positive control); format: biochemical; settings: OA-NO2-inhibited GAPDH
T1 construct: rabbit muscle GAPDH as model protein; from tissue; host or cells: rabbit muscle
T1 sequence (P46406 whole entry): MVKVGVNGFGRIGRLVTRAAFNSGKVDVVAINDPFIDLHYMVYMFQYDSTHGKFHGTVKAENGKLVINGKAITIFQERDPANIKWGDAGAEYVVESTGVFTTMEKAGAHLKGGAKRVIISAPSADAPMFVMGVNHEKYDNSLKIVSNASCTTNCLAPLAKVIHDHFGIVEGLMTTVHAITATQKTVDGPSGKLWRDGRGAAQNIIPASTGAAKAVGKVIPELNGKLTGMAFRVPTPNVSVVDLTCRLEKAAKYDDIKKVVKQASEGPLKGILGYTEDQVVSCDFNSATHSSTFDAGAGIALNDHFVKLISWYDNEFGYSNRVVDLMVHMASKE
Protocol: FIG. 11A: PknG was inhibited by incubation with OA-NO2 (50 μM) in 70 mM ammonium bicarbonate, pH 8.0 at 25° C. for 10 min, as previously. Kinase activity of PknG inhibited by OA-NO2 was measured (PknG+OA-NO2). Subsequently, nitroalkylated samples were treated with DTT (42 mM) or GSH (24 mM) for 15 min at 25° C. and kinase activity was re-measured (PknG+OA-NO2+RSH). Activity recovery was expressed as a ratio between [activity of PknG+OA-NO2+RSH]/[activity PknG+OA-NO2] where 1 means no activity recovery after thiol-containing agent treatment. GAPDH was used as a positive control: after DTT treatment 90% of the initial activity was recovered representing a 12 fold increase in the enzyme activity after the RSH treatment. […] Three independent experiments were performed FIG. 11B: MALDI-TOF mass spectrum of peptides generated by tryptic digestion of PknG. Upper panel: untreated PknG, middle panel: PknG exposed to OA-NO2 and lower panel: idem middle panel+42 mM DTT. In each panel the native or nitroalkylated form of the peptide with the sequence 122-154 that includes the Rbx-Cys 128 and 131, are shown. […]
We have previously reported that nitrated fatty acids are capable to inhibit GAPDH activity by modification of nucleophilic amino acid residues in a thiol-reversible manner. […] PknG control activity was measured in the presence of the thiol-containing reagents. […]

Sequence of PknGΔ74/TPR (P9WI73 whole entry, looked up, stated change not applied): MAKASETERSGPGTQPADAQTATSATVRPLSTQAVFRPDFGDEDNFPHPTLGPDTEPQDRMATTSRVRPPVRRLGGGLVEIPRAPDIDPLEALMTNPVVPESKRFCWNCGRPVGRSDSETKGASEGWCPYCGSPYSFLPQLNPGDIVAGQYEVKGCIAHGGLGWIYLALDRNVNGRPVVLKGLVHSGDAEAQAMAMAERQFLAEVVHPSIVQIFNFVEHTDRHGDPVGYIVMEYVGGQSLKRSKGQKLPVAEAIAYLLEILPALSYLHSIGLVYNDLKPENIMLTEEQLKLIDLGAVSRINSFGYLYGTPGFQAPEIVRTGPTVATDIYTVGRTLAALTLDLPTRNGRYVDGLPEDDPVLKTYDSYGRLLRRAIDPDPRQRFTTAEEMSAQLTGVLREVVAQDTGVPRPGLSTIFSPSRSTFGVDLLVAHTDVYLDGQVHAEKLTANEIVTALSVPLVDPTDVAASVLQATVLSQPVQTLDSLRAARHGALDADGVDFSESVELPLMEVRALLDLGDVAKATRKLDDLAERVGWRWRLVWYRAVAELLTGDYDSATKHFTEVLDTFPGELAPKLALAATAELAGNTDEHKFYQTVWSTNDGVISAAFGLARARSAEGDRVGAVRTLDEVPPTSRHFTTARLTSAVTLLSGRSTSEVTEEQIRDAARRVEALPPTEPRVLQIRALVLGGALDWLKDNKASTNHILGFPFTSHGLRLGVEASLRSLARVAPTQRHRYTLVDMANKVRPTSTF
Sequence of Xanthine oxidoreductase (XOR) (P47989 whole entry): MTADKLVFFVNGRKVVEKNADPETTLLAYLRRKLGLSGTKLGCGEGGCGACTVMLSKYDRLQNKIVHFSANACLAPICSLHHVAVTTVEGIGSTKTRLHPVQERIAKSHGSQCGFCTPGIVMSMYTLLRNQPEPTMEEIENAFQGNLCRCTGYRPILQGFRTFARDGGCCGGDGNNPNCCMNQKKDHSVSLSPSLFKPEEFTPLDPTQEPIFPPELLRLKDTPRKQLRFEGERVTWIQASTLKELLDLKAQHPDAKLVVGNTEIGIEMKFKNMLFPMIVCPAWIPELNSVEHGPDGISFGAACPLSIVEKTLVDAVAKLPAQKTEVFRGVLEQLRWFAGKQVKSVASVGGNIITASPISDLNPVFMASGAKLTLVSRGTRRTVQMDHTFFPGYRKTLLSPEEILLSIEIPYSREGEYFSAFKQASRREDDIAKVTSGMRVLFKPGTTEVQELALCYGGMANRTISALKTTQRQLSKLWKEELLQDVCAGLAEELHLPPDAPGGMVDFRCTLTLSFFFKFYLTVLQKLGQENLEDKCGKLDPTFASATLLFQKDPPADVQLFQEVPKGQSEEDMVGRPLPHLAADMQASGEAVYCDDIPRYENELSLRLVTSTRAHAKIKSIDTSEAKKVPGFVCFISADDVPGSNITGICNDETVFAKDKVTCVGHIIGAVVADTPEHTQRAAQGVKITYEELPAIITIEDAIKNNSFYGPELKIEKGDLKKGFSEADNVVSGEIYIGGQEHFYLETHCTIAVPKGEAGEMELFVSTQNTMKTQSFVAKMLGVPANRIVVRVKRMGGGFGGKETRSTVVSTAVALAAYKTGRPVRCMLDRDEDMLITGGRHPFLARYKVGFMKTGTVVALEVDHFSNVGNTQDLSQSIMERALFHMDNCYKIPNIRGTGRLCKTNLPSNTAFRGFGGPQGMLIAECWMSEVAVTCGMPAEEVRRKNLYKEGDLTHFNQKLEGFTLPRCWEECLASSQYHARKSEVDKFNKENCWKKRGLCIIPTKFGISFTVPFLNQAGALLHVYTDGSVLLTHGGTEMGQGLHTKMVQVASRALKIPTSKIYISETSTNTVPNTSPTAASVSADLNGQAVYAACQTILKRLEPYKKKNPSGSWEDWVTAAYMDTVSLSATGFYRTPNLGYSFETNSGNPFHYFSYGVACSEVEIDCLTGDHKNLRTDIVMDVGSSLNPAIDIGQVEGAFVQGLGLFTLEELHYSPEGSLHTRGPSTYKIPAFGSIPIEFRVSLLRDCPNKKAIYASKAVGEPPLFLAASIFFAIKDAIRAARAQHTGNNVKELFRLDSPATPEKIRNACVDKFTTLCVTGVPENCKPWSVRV

In the case of “9- and 10-nitro-octadeca-9-cis-enoic acid [OA-NO2]”, the “XOR inhibition, reversibility” value [1] is given as “not reversed by thiol reagents”, the “enzyme inhibition of PknGΔ74/TPR” value (PknGΔ74/TPR) is given as “fully inhibited” and the “increase in GAPDH activity after RSH treatment” value (rabbit muscle GAPDH) is given as 12 fold. The “initial GAPDH activity recovered after DTT treatment” value (rabbit muscle GAPDH) was 90%.
